Reference: publication PMC6292860, “Characterisation of small molecule ligands 4CMTB and 2CTAP as modulators of human FFA2 receptor signalling” (Scientific Reports, 2018)

Tests used:
[1] = test system: intestinal ischemia reperfusion injury (IRI); assay: Mouse model of intestinal ischemia reperfusion injury (superior mesenteric artery occlusion); format: in vivo; settings: for Circulating neutrophil numbers: IRI groups, WT mice; for Circulating neutrophil numbers / Mucosal (villi) damage, histopathological score of H&E-stained ileum / Neutrophil infiltration into the ileum (esterase-stained neutrophils, myeloperoxidase): oral gavage; for Mucosal (villi) damage, histopathological score of H&E-stained ileum / Neutrophil infiltration into the ileum (esterase-stained neutrophils, myeloperoxidase): WT IRI groups; for Circulating neutrophil counts: sham-operated mice, oral gavage 48 h, 24 h and 1 h prior to surgery, mean ± SEM
Text: Specific pathogen-free (SPF) conventional C57BL/6J (WT) mice were obtained from the […] (ARC) and maintained at The University of Queensland Biological Resources Animal Facilities under specific pathogen-free conditions.
FFA2^−/− knockout mice were obtained from Monash University and bred at The University of Queensland Biological Resources Animal Facilities under SPF conditions. Male mice 10–12 weeks weighing 20–30 g were used for all experiments. All experiments were performed in accordance with the guidelines and approval of The University of Queensland Animal Ethics Committee.
After 35 minutes the ligature was removed to allow for a reperfusion period of 150 minutes. […] Mice were orally gavaged with ligand 48 hours, 24 hours and 1 hour prior to surgery. Mice were euthanised and small intestinal tissue or whole blood [collected in 1 mg/mL EDTA and 0.1 mg/mL nafamostat mesylate (FUT-175)] was collected for further analysis.

hFFA2 [2] = target: T1, hFFA2 (Homo sapiens, UniProt O15552); assay: Fluo-4 Direct Ca^2+ flux assay in CHO cells stably expressing hFFA2; format: cell-based; settings: for Ca^2+ response (in words): ligand alone
T1 construct: host or cells: CHO-K1
T1 sequence (O15552 1-330): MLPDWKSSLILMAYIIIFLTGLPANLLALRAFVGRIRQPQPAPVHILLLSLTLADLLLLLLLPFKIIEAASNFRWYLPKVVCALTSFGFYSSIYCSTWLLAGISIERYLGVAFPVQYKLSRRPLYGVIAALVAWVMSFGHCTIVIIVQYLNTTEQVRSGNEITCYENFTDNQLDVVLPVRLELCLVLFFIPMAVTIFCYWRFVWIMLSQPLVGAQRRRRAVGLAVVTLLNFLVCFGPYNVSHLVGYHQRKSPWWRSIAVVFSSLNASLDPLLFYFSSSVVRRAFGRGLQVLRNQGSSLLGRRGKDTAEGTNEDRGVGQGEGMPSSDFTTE
Experimental: (§1) CHO-K1, stably expressing human FFA2 (CHO-FFA2) was purchased from DiscoverX Corporation. CHO-FFA2 cells were cultured in a buffer of Ham’s F12, 10% FBS, 1% penicillin streptomycin and 800 μg/mL of G418 (Geneticin) (Invitrogen Life Technologies). Cells were passaged when 70–80% confluent using 0.05% trypsin with 1 mM EDTA in phosphate-buffered saline (PBS), pH 7.4. All cells in culture, once seeded, were incubated at 37 °C with 5% CO2.
(§2) Fluo-4 Direct assay was preformed according to manufacturer’s instructions with additional wash steps and read on a Fluorescent Imaging Plate Reader (FLIPR) (Molecular Devices, California). Briefly, 10,000 cells were seeded/well in 10 μL of media in a 384 well block with a clear bottom plate and incubated overnight at 37 °C. An equivalent volume of 2x Flou-4 Direct calcium reagent was added to each well and incubated for 30 min at 37 °C and a further 30 min at room temperature. Ligand addition was carried out on the FLIPR instrument whilst fluorescence was measured at excitation 494 nm and emission at 516 nm for five minutes to enable capture of the fast calcium response.

hFFA2 [3] = target: T1, hFFA2; assay: AlphaScreen SureFire pERK1/2 (Thr202/Tyr204) assay in CHO cells stably expressing hFFA2; format: cell-based; settings: for pERK1/2 response (in words): ligand alone; for Emax: CHO
Experimental: as §1
(§3) To measure pERK1/2 we utilised the high throughput AlphaScreen SureFire pERK1/2 (Thr202/Tyr204) Assay Kit (PerkinElmer)[42]. Detection of pERK1/2 is enabled by immuno-sandwich capture of endogenous pERK1/2 in cell lysates. Antibody-coated AlphaScreen beads generate a highly amplified signal when near due to binding of pERK1/2. Cells were seeded at 50,000 cells/well in a 96 well tissue culture plate and incubated for 24 hours at 37 °C. Cells were then incubated in serum free media overnight. Test compounds were added to the cells and incubated for 10 min at room temperature before cells were lysed and assayed for pERK1/2 using the AlphaScreen-based detection kit according to the manufacturer’s protocol (PerkinElmer).

hFFA2 [4] = target: T1, hFFA2; assay: LANCE Ultra cAMP assay, inhibition of forskolin-induced cAMP, in CHO cells stably expressing hFFA2; format: cell-based; settings: for Emax: CHO; for EC50: read-out: cAMP pEC50 (converted)
Experimental: as §1
The LANCE Ultra cAMP homogeneous time resolved resonance energy transfer (TR-FRET) immunoassay (PerkinElmer) provides a highly sensitive and robust method for the detection of cAMP. Briefly, cells were re-suspended in stimulation buffer (1 x HBSS, 5 mM HEPES, 0.5 mM IBMX, 0.1% BSA (pH7.4)) and transferred to 384-proxiplate (PerkinElmer) at a density of 2000 cells/well. Cells were stimulated with agonist and forskolin (5 μM), where appropriate, and incubated for 30 min. EucAMP tracer and ULight-anti-cAMP solutions were added to the cells and incubated for 1 hour at room temperature. Time- resolved FRET signals were measured after excitation at 320 nm on the EnVision. All data were normalized to the functional response obtained with 1.67 mM sodium acetate.

parental CHO-K1 cells = assay: Ca^2+, pERK1/2 and cAMP assays on the parental CHO-K1 cell line (specificity control); format: cell-based, Chinese Hamster; settings: highest concentration of ligand
Experimental: These cells were cultured in Ham’s F12, 10% FBS and 1% penicillin streptomycin. Cells were passaged when 70–80% confluent using 0.05% trypsin: EDTA in phosphate-buffered saline (PBS), pH 7.4. All cells in culture, once seeded, were incubated at 37 °C with 5% CO2.
as §2, §3
The LANCE Ultra cAMP homogeneous time resolved resonance energy transfer (TR-FRET) immunoassay (PerkinElmer) provides a highly sensitive and robust method for the detection of cAMP. […] Time- resolved FRET signals were measured after excitation at 320 nm on the EnVision. […]

FFA2 = test system: FFA2; design: method as in earlier work; settings: cited from earlier work
[5] = 2CTAP + Acetate (2CTAP dose response in the presence of 2 mM acetate, Fig. 6A), read-out: Ca^2+ pEC50 (converted)
[6] = antagonist mode, concentration-dependent decrease in Ca^2+, read-out: Ca^2+ pEC50 (Antagonist) (converted)
[7] = antagonist mode, inhibition of ERK activation by 2 mM acetate, read-out: pERK1/2 pEC50 (Antagonist) (converted)
[8] = + PTX, read-out: pERK1/2 pEC50 (converted)
[9] = + PTX, percentage of the maximal response from acetate
[10] = ligand alone (agonist mode), CHO-hFFA2, expressed as a percentage of the maximal response from acetate
[11] = ligand alone (agonist mode), CHO-hFFA2, read-out: pERK1/2 pEC50 (converted)
[12] = inhibition of forskolin-induced cAMP, ligand alone, expressed as a percentage of the maximal response from acetate
[13] = inhibition of forskolin-induced cAMP, ligand alone (agonist mode), CHO-hFFA2
[14] = ligand alone (agonist mode), CHO-hFFA2
[15] = 4CMTB at 20 µM on an acetate dose response curve
[16] = 4CMTB below 1 µM on an acetate dose response curve

| EC50 (hFFA2 [2]; [5]) [nM] | EC50 (hFFA2 [2]; [6]) [nM] | Ca^2+ response (in words) (hFFA2 [2]; CHO-hFFA2) | EC50 (hFFA2 [3]; [7]) [nM] | pERK1/2 response (in words) (hFFA2 [3]; CHO-hFFA2) | forskolin-induced cAMP response (in words) (hFFA2 [4]; ligand alone, CHO-hFFA2) | EC50 (hFFA2 [3]; [8]) [nM] | Emax (hFFA2 [3]; [9]) [%] | Emax (hFFA2 [3]; [10]) [%] | EC50 (hFFA2 [3]; [11]) [nM] | Emax (hFFA2 [4]; [12]) [%] | EC50 (hFFA2 [4]; [13]) [nM] | Compound | Circulating neutrophil numbers [1] | Neutrophil infiltration into the ileum (esterase-stained neutrophils, myeloperoxidase) [1] | Response in parental CHO-K1 cells (parental CHO-K1 cells) | other results |
| --- | --- | --- | --- | --- | --- | --- | --- | --- | --- | --- | --- | --- | --- | --- | --- | --- |
| – | – | did not induce a Ca^2+ response | – | – | – | 20000 | 20 | 85 | 1580 | 83 | 100 | CC(C)C(C(=O)Nc1nccs1)c1ccc(Cl)cc1 (racemic) [R/S-4CMTB, 2-(4-chlorophenyl)-3-methyl-N-(thiazole-2-yl)butanamide] | – | – | No response | – |
| 251 | 251 | decreased Ca^2+ | 2510 | no effects | no effects | – | – | – | – | – | – | O=C(O)C[C@@H](C(=O)Nc1nc(-c2ccccc2Cl)cs1)c1ccccc1 [R-2CTAP, 4-((4-(2-chlorophenyl)thiazole-2-yl)amino)-4oxo-3-phenylbutanoic acid] | – | – | – | – |

Second part, the molecule before the results:

| Compound | EC50 (hFFA2 [2]; [5]) [nM] | EC50 (hFFA2 [2]; [6]) [nM] | Ca^2+ response (in words) (hFFA2 [2]; CHO-hFFA2) | EC50 (hFFA2 [3]; [7]) [nM] | pERK1/2 response (in words) (hFFA2 [3]; CHO-hFFA2) | forskolin-induced cAMP response (in words) (hFFA2 [4]; ligand alone, CHO-hFFA2) | EC50 (hFFA2 [3]; [8]) [nM] | Emax (hFFA2 [3]; [9]) [%] | Emax (hFFA2 [3]; [10]) [%] | EC50 (hFFA2 [3]; [11]) [nM] | Emax (hFFA2 [4]; [12]) [%] | EC50 (hFFA2 [4]; [13]) [nM] | Circulating neutrophil numbers [1] | Neutrophil infiltration into the ileum (esterase-stained neutrophils, myeloperoxidase) [1] | Response in parental CHO-K1 cells (parental CHO-K1 cells) | other results |
| --- | --- | --- | --- | --- | --- | --- | --- | --- | --- | --- | --- | --- | --- | --- | --- | --- |
| O=C(O)CC(C(=O)Nc1nc(-c2ccccc2Cl)cs1)c1ccccc1 (racemic) [R/S-2CTAP, 4-((4-(2-chlorophenyl)thiazole-2-yl)amino)-4oxo-3-phenylbutanoic acid] | 631 | 1000 | concentration-dependent decrease in Ca^2+ | 15800 | no effect | no effect | – | – | – | – | – | – | comparable to vehicle control IRI-groups | did not reduce neutrophil infiltration below the IRI group | No response | Protective effects in IRI in the absence of FFA2 ([1]; FFA2^−/− mice, IRI): abolished; Mucosal (villi) damage, histopathological score of H&E-stained ileum [1]: mucosal damage was significantly reduced; Concentration of maximal response in the GTPγS assay (FFA2): 60 nM |
| CC(=O)O [Acetate] | – | – | – | – | – | – | – | – | – | – | – | – | – | – | No response | Ca^2+ pEC50 (hFFA2 [2]; [14]): 3.8; Ca^2+ Emax (hFFA2 [2]; [10]): 100; pERK1/2 pEC50 (hFFA2 [3]; [14]): 3.6; pERK1/2 Emax (hFFA2 [3]; [10]): 100; cAMP pEC50 (hFFA2 [4]; [13]): 3.9; cAMP Emax (hFFA2 [4]; [12]): 100 |
| CC(C)[C@@H](C(=O)Nc1nccs1)c1ccc(Cl)cc1 [R-4CMTB, 2-(4-chlorophenyl)-3-methyl-N-(thiazole-2-yl)butanamide] | – | – | no effect | – | – | – | 20000 | 16 | 60 | 10000 | 74 | 6310 | comparable to vehicle control IRI-groups | did not reduce neutrophil infiltration below the IRI group | – | Circulating neutrophil counts [1]: 0.81 × 10^6 ± 0.11; Allosteric modulation of acetate Ca^2+ response (hFFA2 [2]; [15]): mild effect on the potency of acetate but did not increase the efficacy; Allosteric modulation of acetate Ca^2+ response (hFFA2 [2]; [16]): negative allosteric modulators |
| O=C(O)C[C@H](C(=O)Nc1nc(-c2ccccc2Cl)cs1)c1ccccc1 [S-2CTAP, 4-((4-(2-chlorophenyl)thiazole-2-yl)amino)-4oxo-3-phenylbutanoic acid] | 1580 | 2000 | decreased Ca^2+ | 39800 | no effects | no effects | – | – | – | – | – | – | – | – | – | – |
| CC(C)[C@H](C(=O)Nc1nccs1)c1ccc(Cl)cc1 [S-4CMTB, 2-(4-chlorophenyl)-3-methyl-N-(thiazole-2-yl)butanamide] | – | – | – | – | – | – | 15800 | 22 | 102 | 794 | 99 | 158 | comparable to vehicle control IRI-groups | increased neutrophil infiltration into the villi | – | Mucosal (villi) damage, histopathological score of H&E-stained ileum [1]: did not reduce villi damage; Circulating neutrophil counts [1]: 0.92 × 10^6 ± 0.07; Allosteric modulation of acetate Ca^2+ response (hFFA2 [2]; [15]): increased both the potency and efficacy of acetate; Allosteric modulation of acetate Ca^2+ response (hFFA2 [2]; [16]): negative allosteric modulators; Emax (hFFA2 [2]; [10]): 55%; EC50 (hFFA2 [2]; ligand alone (agonist mode), CHO-hFFA2, read-out: Ca^2+ pEC50 (converted)): 2000 nM |
